According to BindingDB's records for doi:10.1016/j.ejmech.2019.05.014 (Xuzhou Medical University, 2019):

Legend:
[1] = Inhibition of capsid protein in lamivudine/entecavir-resistant Hepatitis B virus harboring rtL180M/rtM204V/rt184L mutant infected in human HepG2.2.15 cells assessed as reduction in viral DNA level measured after 72 hrs by PCR analysis
[2] = Inhibition of capsid protein in Hepatitis B virus infected in human HepG2.2.15 cells assessed as reduction in viral DNA level at 4 uM supplemented with fresh medium containing compound every 2 days and measured after 6 days by RT-PCR analysis

| Structure (SMILES) | IC50 [1] | IC50 [2] |
| --- | --- | --- |
| CN(C)CCOc1ccc2nc(SCc3ccccc3)n(Cc3cccs3)c(=O)c2c1 | 1900 nM | 1540 nM |
| CCN(CC)CCOc1ccc2nc(SCc3ccccc3OC)n(Cc3cccs3)c(=O)c2c1 |  | 1930 nM |
| COc1ccccc1CSc1nc2ccc(F)cc2c(=O)n1Cc1cccs1 |  | 2480 nM |
| CCN(CC)CCOc1ccc2nc(SCc3ccccc3)n(Cc3cccs3)c(=O)c2c1 | 840 nM | 710 nM |
| Nc1ccn([C@@H]2CS[C@H](CO)O2)c(=O)n1 [Epivir] | > 100000 nM | < 100 nM |
| COc1ccc(C(C)=O)cc1CSc1nc2ccccc2c(=O)n1Cc1cccs1 |  | 4070 nM |
| COc1ccccc1CSc1nc2ccccc2c(=O)n1Cc1cccs1 |  | 2810 nM |
